The target in assay [1] is human sodium channel NaV1.2 (Homo sapiens, UniProt Q99250). The assay can be described thus: NaV1.2 inhibition, automated patch-clamp (Q-Patch HTX), slow inactivated state (state C). Format: cell-based. Particulars: hNaV1.2 CHO cells, slow inactivated state; for inhibition at 10 µM: 10 μM compound, read-out: NaV1.2 (% inh), 10 μM; for IC50: read-out: NaV1.2 IC50; for inhibition at 1 µM: 1 μM compound, read-out: NaV1.2 (% inh), 1 μM. The procedure, abridged: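 IC50 comes from a least-squares fit of percent inhibition, relative to vehicle, of current in the slow-inactivated state. That state is reached by a 10 s prepulse to −50 mV, then 15 ms at −90 mV, then a 5 ms test pulse to 0 mV. Human NaV1.2 in stable CHO K-1 cells, held at −100 mV, automated patch clamp.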
(The patch-clamp technique gives a direct electrical read-out from membranes.)

Assay [2] addresses T1, recombinant human serotonin receptor 5-HT2A (Homo sapiens, UniProt P28223).
T1 construct: expressed in transfected cells; method B: loaded with Ca2+ dye
The assay can be described thus: 5-HT2A antagonist Ca2+ assay in CHO-K1 cells (method A aequorin luminescence / method B FLIPR fluorescence). Format: cell-based. Particulars: antagonist mode vs EC80 of reference agonist, method A or B, read-out: 5HT2A IC50. An outline of the steps:
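IC50 was obtained by nonlinear regression of percent inhibition of the EC80 agonist Ca2+ response in CHO-K1 cells stably expressing human 5-HT2A. The readout was aequorin luminescence with agonist injected 15 min after compound (A), or Ca2+-dye fluorescence on FLIPR with serotonin as agonist (B).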

T1 sequence (P28223 whole entry): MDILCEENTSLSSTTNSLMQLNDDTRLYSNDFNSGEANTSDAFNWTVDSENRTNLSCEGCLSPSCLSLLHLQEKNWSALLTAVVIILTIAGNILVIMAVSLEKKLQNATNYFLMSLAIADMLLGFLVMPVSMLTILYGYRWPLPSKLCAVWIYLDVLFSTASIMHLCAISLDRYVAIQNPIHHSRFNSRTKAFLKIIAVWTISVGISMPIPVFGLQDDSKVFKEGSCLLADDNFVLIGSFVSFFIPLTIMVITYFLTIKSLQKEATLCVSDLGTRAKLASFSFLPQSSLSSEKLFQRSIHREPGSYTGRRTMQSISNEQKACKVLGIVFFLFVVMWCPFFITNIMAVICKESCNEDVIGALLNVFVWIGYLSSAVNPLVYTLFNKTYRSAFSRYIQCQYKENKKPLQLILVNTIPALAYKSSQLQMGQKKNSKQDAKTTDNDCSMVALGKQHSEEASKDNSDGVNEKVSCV
Chain of human sodium channel NaV1.2 (Q99250 whole entry): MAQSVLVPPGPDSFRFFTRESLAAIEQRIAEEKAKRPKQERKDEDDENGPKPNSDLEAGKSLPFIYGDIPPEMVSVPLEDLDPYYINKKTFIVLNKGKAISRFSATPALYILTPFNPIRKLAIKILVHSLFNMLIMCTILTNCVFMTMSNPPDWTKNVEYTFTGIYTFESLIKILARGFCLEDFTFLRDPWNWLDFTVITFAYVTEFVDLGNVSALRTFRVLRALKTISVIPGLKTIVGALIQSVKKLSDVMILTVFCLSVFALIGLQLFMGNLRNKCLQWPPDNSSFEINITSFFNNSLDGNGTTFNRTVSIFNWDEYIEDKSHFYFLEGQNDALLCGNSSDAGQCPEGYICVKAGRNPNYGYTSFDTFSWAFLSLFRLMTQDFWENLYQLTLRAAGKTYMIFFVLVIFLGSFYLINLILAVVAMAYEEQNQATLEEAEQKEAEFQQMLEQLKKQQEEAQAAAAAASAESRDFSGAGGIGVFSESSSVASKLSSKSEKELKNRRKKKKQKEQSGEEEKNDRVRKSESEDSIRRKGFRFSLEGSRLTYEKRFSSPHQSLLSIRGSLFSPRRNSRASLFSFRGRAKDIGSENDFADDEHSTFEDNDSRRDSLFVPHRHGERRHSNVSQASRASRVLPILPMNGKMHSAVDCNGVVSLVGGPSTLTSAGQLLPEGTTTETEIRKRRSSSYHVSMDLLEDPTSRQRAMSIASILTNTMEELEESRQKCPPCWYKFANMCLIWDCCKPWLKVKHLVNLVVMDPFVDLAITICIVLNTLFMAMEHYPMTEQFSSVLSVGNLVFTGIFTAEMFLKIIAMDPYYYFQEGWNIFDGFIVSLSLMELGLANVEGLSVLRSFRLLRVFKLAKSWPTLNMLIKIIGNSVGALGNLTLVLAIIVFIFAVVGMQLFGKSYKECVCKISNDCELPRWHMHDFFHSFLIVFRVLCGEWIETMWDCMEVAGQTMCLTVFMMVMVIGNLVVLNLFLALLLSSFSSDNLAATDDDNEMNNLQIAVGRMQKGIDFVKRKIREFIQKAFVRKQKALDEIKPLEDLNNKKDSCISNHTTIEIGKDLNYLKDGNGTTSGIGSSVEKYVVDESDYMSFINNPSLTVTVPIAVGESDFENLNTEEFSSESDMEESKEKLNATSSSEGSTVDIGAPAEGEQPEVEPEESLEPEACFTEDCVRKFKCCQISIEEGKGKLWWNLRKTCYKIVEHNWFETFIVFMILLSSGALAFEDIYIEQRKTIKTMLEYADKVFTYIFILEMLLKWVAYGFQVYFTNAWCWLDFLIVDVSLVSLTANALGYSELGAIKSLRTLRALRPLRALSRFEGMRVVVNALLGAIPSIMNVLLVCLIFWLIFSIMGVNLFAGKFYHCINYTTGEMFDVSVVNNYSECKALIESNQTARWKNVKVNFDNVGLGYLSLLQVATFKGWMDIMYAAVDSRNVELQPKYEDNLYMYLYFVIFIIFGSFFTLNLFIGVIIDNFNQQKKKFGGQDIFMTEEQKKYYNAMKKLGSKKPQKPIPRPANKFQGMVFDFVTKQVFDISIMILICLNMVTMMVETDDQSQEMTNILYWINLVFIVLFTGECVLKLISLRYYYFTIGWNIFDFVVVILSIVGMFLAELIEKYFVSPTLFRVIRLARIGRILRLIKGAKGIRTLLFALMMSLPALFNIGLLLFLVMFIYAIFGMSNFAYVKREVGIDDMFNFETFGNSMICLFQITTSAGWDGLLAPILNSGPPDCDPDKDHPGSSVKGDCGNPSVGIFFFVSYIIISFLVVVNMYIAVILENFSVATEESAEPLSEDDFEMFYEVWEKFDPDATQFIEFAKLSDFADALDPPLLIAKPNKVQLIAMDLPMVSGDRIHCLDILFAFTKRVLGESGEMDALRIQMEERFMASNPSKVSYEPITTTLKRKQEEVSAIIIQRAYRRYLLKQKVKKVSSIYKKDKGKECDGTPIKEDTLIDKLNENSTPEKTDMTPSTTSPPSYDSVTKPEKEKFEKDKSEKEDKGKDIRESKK

Usually IC50 stands for the point on the concentration scale where inhibition reaches its midpoint. Regarding `COCc1cccc(OC2CCN(CCN3CCCc4ccccc4C3=O)CC2)c1` [Example 206, 2-(2-(4-(3-(methoxymethyl)phenoxy)piperidin-1-yl)ethyl)-2,3,4,5-tetrahydro-1H-benzo[c]azepin-1-one], the inhibition at 10 µM in assay [1] was 46%. Moreover, in assay [2], the half-maximal inhibitory concentration (IC50) is more than 1300 nM.

For `O=C1c2cccnc2CCN1CCN1CCC(Oc2ccc(F)cc2)CC1` [Example 207, 6-(2-(4-(4-fluorophenoxy)piperidin-1-yl)ethyl)-7,8-dihydro-1,6-naphthyridin-5(6H)-one], the inhibition at 10 µM in assay [1] is 38%. Also, the IC50 in assay [2] worked out at 30 nM.

Consider `O=C1c2ccccc2CCCN1CCN1CCC(Oc2ccc(F)cc2)CC1` [Example 208, 2-(2-(4-(4-fluorophenoxy)piperidin-1-yl)ethyl)-2,3,4,5-tetrahydro-1H-benzo[c]azepin-1-one], for which the IC50 in assay [1] was 1210 nM; in assay [2], 10 nM.

For the molecule `O=C1c2cc(Cl)ccc2CCCN1CCN1CCC(Oc2ccc(F)cc2)CC1` [Example 209, 8-chloro-2-(2-(4-(4-fluorophenoxy)piperidin-1-yl)ethyl)-2,3,4,5-tetrahydro-1H-benzo[c]azepin-1-one], the IC50 stood at 270 nM in assay [1] and 20 nM in assay [2].

In the case of `CN(C)Cc1ccc2c(c1)C(=O)N(CCN1CCC(Oc3ccc(F)cc3)CC1)CCC2` [Example 211, 8-((dimethylamino)methyl)-2-(2-(4-(4-fluorophenoxy)piperidin-1-yl)ethyl)-2,3,4,5-tetrahydro-1H-benzo[c]azepin-1-one], in assay [1], the inhibition at 10 µM turned out to be 50%. Besides, in assay [2], the IC50 was determined as 270 nM.

For the molecule `COc1ccc2c(c1)CCCN(CCN1CCC(Oc3ccc(F)cc3)CC1)C2=O` [Example 212, 2-(2-(4-(4-fluorophenoxy)piperidin-1-yl)ethyl)-7-methoxy-2,3,4,5-tetrahydro-1H-benzo[c]azepin-1-one], in assay [1], the inhibition at 10 µM was 48%. The IC50 in assay [2] worked out at 10 nM.

Regarding `O=C1c2ccc(Br)cc2CCCN1CCN1CCC(Oc2ccc(F)cc2)CC1` [Example 213, 7-bromo-2-(2-(4-(4-fluorophenoxy)piperidin-1-yl)ethyl)-2,3,4,5-tetrahydro-1H-benzo[c]azepin-1-one], the IC50 was found to be 180 nM in assay [1] and 80 nM in assay [2].

As to `O=C(CN1CCC(Oc2ccc(F)cc2)CC1)C1CCc2ccccc21` (stereo not drawn) [Example 215, 1-(2,3-dihydro-1H-inden-1-yl)-2-(4-(4-fluorophenoxy)piperidin-1-yl)ethan-1-one], the inhibition at 1 µM in assay [1] amounted to 25%. The IC50 in assay [2] worked out at 190 nM.

For `O=C(CN1CCC(Oc2ccccc2)CC1)c1ccccc1` [Example 216, 2-(4-phenoxypiperidin-1-yl)-1-phenylethan-1-one], the inhibition at 1 µM in assay [1] was determined as 34%. The IC50 in assay [2] worked out at 150 nM.

Consider `c1ccc(OC2CCN(CCO[C@H]3CCc4ccccc43)CC2)cc1` [Example 217, (S)-1-(2-((2,3-dihydro-1H-inden-1-yl)oxy)ethyl)-4-phenoxypiperidine], for which the inhibition at 1 µM in assay [1] stood at 58%. Also, in assay [2], the IC50 was determined as 280 nM.

As to `c1ccc(OC2CCN(CCO[C@@H]3CCc4ccccc43)CC2)cc1` [Example 218, (R)-1-(2-((2,3-dihydro-1H-inden-1-yl)oxy)ethyl)-4-phenoxypiperidine], the inhibition at 10 µM in assay [1] was 72%. Moreover, the IC50 in assay [2] turned out to be 440 nM.

As for `O=C1Cc2ccccc2N1CCCN1CCC(Oc2ccc(F)cc2)CC1` [Example 219, 1-(3-(4-(4-fluorophenoxy)piperidin-1-yl)propyl)indolin-2-one], in assay [1], the inhibition at 10 µM stood at 54%. Also, the IC50 in assay [2] came to 10 nM.

Regarding `O=C1c2ccccc2CCN1CCCN1CCC(Oc2cccnc2)CC1` [Example 220, 2-(3-(4-(pyridin-3-yloxy)piperidin-1-yl)propyl)-3,4-dihydroisoquinolin-1(2H)-one], in assay [1], the inhibition at 10 µM is 12%. For the same molecule, in assay [2], the IC50 was determined as 490 nM.

With `COc1cccc(OC2CCN(CCCN3CCc4ccccc4C3=O)CC2)c1` [Example 221, 2-(3-(4-(3-methoxyphenoxy)piperidin-1-yl)propyl)-3,4-dihydroisoquinolin-1(2H)-one], the IC50 in assay [1] was 1000 nM; in assay [2], 980 nM.

With `O=C1c2ccccc2CCN1CCCN1CCC(Oc2ccc(F)cc2)CC1` [Example 222, 2-(3-(4-(4-fluorophenoxy)piperidin-1-yl)propyl)-3,4-dihydroisoquinolin-1(2H)-one], the IC50 was determined as 1300 nM in assay [1] and 60 nM in assay [2].

As to `O=C1c2ccccc2CCCN1CCCN1CCC(Oc2ccc(F)cc2)CC1` [Example 223, 2-(3-(4-(4-fluorophenoxy)piperidin-1-yl)propyl)-2,3,4,5-tetrahydro-1H-benzo[c]azepin-1-one], the inhibition at 10 µM in assay [1] turned out to be 68%. The IC50 in assay [2] was 30 nM.

Take `COc1cccc(OCCN2CCC(Oc3ccccc3)CC2)c1` [Example 224, 1-(2-(3-methoxyphenoxy)ethyl)-4-phenoxypiperidine]: the inhibition at 10 µM in assay [1] came to 81%. Further, the IC50 in assay [2] came out at 170 nM.

Regarding `COc1cccc(CCCN2CCC(Oc3ccccc3)CC2)c1` [Example 225, 1-(3-(3-methoxyphenyl)propyl)-4-phenoxypiperidine], the inhibition at 10 µM in assay [1] was determined as 88%. The IC50 in assay [2] was 250 nM.

`O[C@H](CCN1CCC(Oc2ccccc2)CC1)c1ccccc1` [Example 227, (R)-3-(4-phenoxypiperidin-1-yl)-1-phenylpropan-1-ol]: the inhibition at 10 µM in assay [1] turned out to be 53%. In addition, the IC50 in assay [2] came to 140 nM.

For the molecule `O[C@@H](CCN1CCC(Oc2ccccc2)CC1)c1ccccc1` [Example 228, (S)-3-(4-phenoxypiperidin-1-yl)-1-phenylpropan-1-ol], the inhibition at 10 µM in assay [1] was 52%. Besides, the IC50 in assay [2] is 140 nM.

As for `CO[C@H](CCN1CCC(Oc2ccccc2)CC1)c1ccccc1` [Example 229, (R)-1-(3-methoxy-3-phenylpropyl)-4-phenoxypiperidine], the IC50 worked out at 1080 nM in assay [1] and 30 nM in assay [2].

Take `CO[C@@H](CCN1CCC(Oc2ccccc2)CC1)c1ccccc1` [Example 230, (S)-1-(3-methoxy-3-phenylpropyl)-4-phenoxypiperidine]: the inhibition at 10 µM in assay [1] is 87%. The IC50 in assay [2] was 390 nM.

For `c1ccc(OC2CCN(CCOc3ccc4cccnc4c3)CC2)cc1` [Example 232, 7-(2-(4-phenoxypiperidin-1-yl)ethoxy)quinoline], the inhibition at 10 µM in assay [1] came to 76%. Further, in assay [2], the IC50 stood at 220 nM.

As for `OC(CO[C@H]1CCc2ccccc21)CN1CCC(Oc2ccc(F)cc2)CC1` (stereo partly drawn) [Example 235, 1-(((S)-2,3-dihydro-1H-inden-1-yl)oxy)-3-(4-(4-fluorophenoxy)piperidin-1-yl)propan-2-ol], the IC50 in assay [1] was 340 nM; in assay [2], 190 nM.

On to `OC(CO[C@@H]1CCc2ccccc21)CN1CCC(Oc2ccc(F)cc2)CC1` (stereo partly drawn) [Example 236, 1-(((R)-2,3-dihydro-1H-inden-1-yl)oxy)-3-(4-(4-fluorophenoxy)piperidin-1-yl)propan-2-ol], for which the IC50 in assay [1] is 550 nM; in assay [2] it was 350 nM.

For the molecule `O[C@@H](CO[C@H]1CCc2ccccc21)CN1CCC(Oc2ccc(F)cc2)CC1` [Example 238, (R)-1-(((S)-2,3-dihydro-1H-inden-1-yl)oxy)-3-(4-(4-fluorophenoxy)piperidin-1-yl)propan-2-ol], the inhibition at 1 µM in assay [1] stood at 47%. Also, the IC50 in assay [2] was 240 nM.

`OC(COC1CCCCc2ccccc21)CN1CCC(Oc2ccccc2)CC1` (stereo not drawn) [Example 240, 1-(4-phenoxypiperidin-1-yl)-3-((6,7,8,9-tetrahydro-5H-benzo[7]annulen-5-yl)oxy)propan-2-ol]: the results for the IC50 in assay [1] and in assay [2] were 960 nM and 110 nM, respectively.

With `COc1ccc2c(c1)C(CN1CCC(OCc3ccccc3C)CC1)CC2` (stereo not drawn) [Example 242, 1-((6-methoxy-2,3-dihydro-1H-inden-1-yl)methyl)-4-((2-methylbenzyl)oxy)piperidine], the values for the IC50 in assay [1] and in assay [2] were 230 nM and 90 nM, respectively.

For the molecule `COc1ccc2c(c1)C(CN1CCC(OCc3ccccc3F)CC1)CC2` (stereo not drawn) [Example 243, 4-((2-fluorobenzyl)oxy)-1-((6-methoxy-2,3-dihydro-1H-inden-1-yl)methyl)piperidine], the IC50 in assay [1] worked out at 100 nM; in assay [2], 360 nM.

As for `COc1ccc2c(c1)C(CN1CCC(OCc3ccccc3Cl)CC1)CC2` (stereo not drawn) [Example 244, 4-((2-chlorobenzyl)oxy)-1-((6-methoxy-2,3-dihydro-1H-inden-1-yl)methyl)piperidine], the IC50 is 160 nM in assay [1] and 60 nM in assay [2].

For `COc1ccc2c(c1)C(CN1CCC(OCc3ccc(F)cc3)CC1)CC2` (stereo not drawn) [Example 247, 4-((4-fluorobenzyl)oxy)-1-((6-methoxy-2,3-dihydro-1H-inden-1-yl)methyl)piperidine], the IC50 in assay [1] is 270 nM; in assay [2] it was 100 nM.

Consider `Fc1ccc(COC2CCN(CC3CCOc4ccccc43)CC2)cc1` (stereo not drawn) [Example 249, 1-(chroman-4-ylmethyl)-4-((4-fluorobenzyl)oxy)piperidine], for which the IC50 in assay [1] was 630 nM; in assay [2], 210 nM.

Consider `COc1ccc2c(c1)C(CN1CCC(NS(=O)(=O)c3ccc(F)cc3)CC1)CC2` (stereo not drawn) [Example 250, 4-fluoro-N-(1-((6-methoxy-2,3-dihydro-1H-inden-1-yl)methyl)piperidin-4-yl)benzenesulfonamide], for which the IC50 in assay [1] was 200 nM; in assay [2] it was 70 nM.

The values above are taken from patent publication US11186564B2, “Dual NAV1.2/5HT2a inhibitors for treating CNS disorders” (Sunovion Pharmaceuticals Inc., priority 2016, dated 2021).
